Assays:
[1] = compound: C1CN(CCC1(C(=O)N[C@@H](CCO)C2=CC=C(C=C2)Cl)N)C3=NC=NC4=C3C=CN4 [Capivasertib]; conditions: max 10 µM
Summary of the method: (§1)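 In 1536-well plates, cancer cell lines in 7.5 μl DMEM/F12 or RPMI with 10% FBS spent 24 hours at 37°C and 5% CO2 and were then dosed for 72 hours with final DMSO typically 0.2%. Viability was read by CellTiter-Glo 2.0 luminescence and scaled between blank-well and DMSO-well means. The single-agent IC50 was fitted from dose responses using a logistic curve in a non-linear mixed effects model, and that logistic curve had two parameters.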

[2] = compound: C=CCn1c(=O)c2cnc(Nc3ccc(N4CCN(C)CC4)cc3)nc2n1-c1cccc(C(C)(C)O)n1 [AZD1775]; conditions: max 3 µM
Summary of the method: as §1

[3] = compound: CC(=O)Nc1cccc(-n2c(=O)n(C3CC3)c(=O)c3c(Nc4ccc(I)cc4F)n(C)c(=O)c(C)c32)c1 [Trametinib]; conditions: max 1 µM
Summary of the method: as §1

[4] = compound: CC(=O)c1c(C)c2cnc(Nc3ccc(N4CCNCC4)cn3)nc2n(C2CCCC2)c1=O [Palbociclib]; conditions: max 10 µM
Summary of the method: as §1

[5] = compound: CC(C)n1c(=O)n(C)c2cnc3cc(F)c(-c4ccc(OCCCN5CCCCC5)nc4)cc3c21 [AZD1390]; conditions: max 0.3 µM
Summary of the method: as §1

[6] = compound: CC1(C)CCC(CN2CCN(c3ccc(C(=O)NS(=O)(=O)c4ccc(NCC5CCOCC5)c([N+](=O)[O-])c4)c(Oc4cnc5[nH]ccc5c4)c3)CC2)=C(c2ccc(Cl)cc2)C1 [Venetoclax]; conditions: max 1 µM
Summary of the method: as §1

[7] = compound: CC1=C(C(=CC=C1)Cl)NC(=O)C2=CN=C(S2)NC3=CC(=NC(=N3)C)N4CCN(CC4)CCO [Dasatinib]; conditions: max 2 µM
Summary of the method: as §1

[8] = compound: CC1=CN2[C@@H](C1)C=NC3=CC(=C(C=C3C2=O)OC)OCCCCCOC4=C(C=C5C(=C4)N=C[C@@H]6CC(=CN6C5=O)C)OC [SG3199]; conditions: max 0.001 µM
Summary of the method: as §1

[9] = compound: CCN(CCO)CCCOc1ccc2c(Nc3cc(CC(=O)Nc4cccc(F)c4)[nH]n3)ncnc2c1 [AZD2811]; conditions: max 1 µM
Summary of the method: as §1

[10] = compound: CCc1c2c(nc3ccc(O)cc13)-c1cc3c(c(=O)n1C2)COC(=O)[C@]3(O)CC [SN-38]; conditions: max 0.3 µM
Summary of the method: as §1

[11] = compound: CN(C)CCCOc1ccc(-c2ccc3ncc4c(c3c2)n(C2CCOCC2)c(=O)n4C)cn1 [AZD0156]; conditions: max 3 µM
Summary of the method: as §1

[12] = compound: CN(CC[C@H](CSC1=CC=CC=C1)NC2=C(C=C(C=C2)S(=O)(=O)NC(=O)C3=CC=C(C=C3)N4CCC(CC4)[C@H](C5=CC=CC=C5C6=CC=C(C=C6)Cl)O)S(=O)(=O)C(F)(F)F)CCO [AZD4320]; conditions: max 1 µM
Summary of the method: as §1

[13] = compound: COc1cc(Nc2ncc3c(n2)-c2ccc(Cl)cc2C(c2c(F)cccc2OC)=NC3)ccc1C(=O)O [Alisertib]; conditions: max 10 µM
Summary of the method: as §1

[14] = compound: COc1cc2ncnc(Nc3ccc(F)c(Cl)c3)c2cc1OCCCN1CCOCC1 [Gefitinib]; conditions: max 10 µM
Summary of the method: as §1

[15] = compound: COc1cccc(OCCCN)c1-c1cc(Nc2cnc(C#N)cn2)n[nH]1 [Prexasertib]; conditions: max 1 µM
Summary of the method: as §1

[16] = compound: COc1cccc2c1C(=O)c1c(O)c3c(c(O)c1C2=O)C[C@@](O)(C(=O)CO)C[C@@H]3O[C@H]1C[C@H](N)[C@H](O)[C@H](C)O1 [Doxorubicin]; conditions: max 1 µM
Summary of the method: as §1

[17] = compound: COc1nnc2ccc(N3CCC(c4ccc(OCCN5CCN(C)C(=O)[C@H]5C)cc4)CC3)nn12 [AZD5153]; conditions: max 1 µM
Summary of the method: as §1

[18] = compound: CS(=O)(=O)CCNCc1ccc(-c2ccc3ncnc(Nc4ccc(OCc5cccc(F)c5)c(Cl)c4)c3c2)o1 [Lapatinib]; conditions: max 10 µM
Summary of the method: as §1

[19] = compound: C[C@@H](Nc1cc(F)cc(F)c1)c1cc(C(=O)N(C)C)cc2c(=O)cc(N3CCOCC3)oc12 [AZD8186]; conditions: max 3 µM
Summary of the method: as §1

[20] = compound: C[C@@H](Oc1cc(-c2cnn(C3CCNCC3)c2)cnc1N)c1c(Cl)ccc(F)c1Cl [Crizotinib]; conditions: max 10 µM
Summary of the method: as §1

[21] = compound: C[C@@H](c1ccc2nccn2c1)n1nnc2ncc(-c3cnn(C)c3)nc21 [Savolitinib]; conditions: max 1 µM
Summary of the method: as §1

[22] = compound: C[C@@H]1COCCN1C2=NC(=NC(=C2)C3(CC3)[S@](=N)(=O)C)C4=C5C=CNC5=NC=C4 [AZD6738]; conditions: max 10 µM
Summary of the method: as §1

[23] = compound: Cc1c2c(nn1C)CSCc1cc(n(C)n1)CSc1cc(c3ccccc3c1)OCCCc1c(C(=O)O)n(C)c3c-2c(Cl)ccc13 [AZD5991]; conditions: max 1 µM
Summary of the method: as §1

[24] = compound: Cc1cc2ncnn2cc1Nc1ncc2c(n1)n(C1CCOCC1)c(=O)n2C [AZD7648]; conditions: max 10 µM
Summary of the method: as §1

[25] = compound: Cc1nc(-c2cn3c(n2)-c2ccc(-c4cnn(C(C)(C)C(N)=O)c4)cc2OCC3)n(C(C)C)n1 [Taselisib]; conditions: max 10 µM
Summary of the method: as §1

[26] = compound: Cn1cnc2c(F)c(Nc3ccc(Br)cc3Cl)c(C(=O)NOCCO)cc21 [Selumetinib]; conditions: max 10 µM
Summary of the method: as §1

[27] = compound: O=C(c1cc(Cc2n[nH]c(=O)c3ccccc23)ccc1F)N1CCN(C(=O)C2CC2)CC1 [Olaparib]; conditions: max 10 µM
Summary of the method: as §1

Cell Line | IC50, cell viability 72 h [1] | IC50, cell viability 72 h [2] | IC50, cell viability 72 h [3] | IC50, cell viability 72 h [4] | IC50, cell viability 72 h [5] | IC50, cell viability 72 h [6] | IC50, cell viability 72 h [7] | IC50, cell viability 72 h [8] | IC50, cell viability 72 h [9] | IC50, cell viability 72 h [10] | IC50, cell viability 72 h [11] | IC50, cell viability 72 h [12] | IC50, cell viability 72 h [13] | IC50, cell viability 72 h [14] | IC50, cell viability 72 h [15] | IC50, cell viability 72 h [16] | IC50, cell viability 72 h [17] | IC50, cell viability 72 h [18] | IC50, cell viability 72 h [19] | IC50, cell viability 72 h [20] | IC50, cell viability 72 h [21] | IC50, cell viability 72 h [22] | IC50, cell viability 72 h [23] | IC50, cell viability 72 h [24] | IC50, cell viability 72 h [25] | IC50, cell viability 72 h [26] | IC50, cell viability 72 h [27]
OACM5-1 (Esophageal Adenocarcinoma) | 1.99 µM | 2550 nM | > 1000 nM | 6.86 µM | > 300 nM | > 1000 nM | > 2000 nM | > 1 nM | > 1000 nM | 46.4 nM | > 3000 nM | > 1000 nM | 3850 nM | > 10 µM | 134 nM | 615 nM | 391 nM | 8.07 µM | > 3000 nM | 4.4 µM | > 1000 nM | 9.88 µM | 58.2 nM | > 10 µM | 0.418 µM | > 10 µM | > 10 µM
CADO-ES1 (Ewing's Sarcoma) | > 10 µM | 2290 nM | > 1000 nM | > 10 µM | > 300 nM | 60.9 nM | > 2000 nM | > 1 nM | > 1000 nM | 2.06 nM | > 3000 nM | 243 nM | 135 nM | > 10 µM | 50 nM | 827 nM | > 1000 nM | > 10 µM | > 3000 nM | > 10 µM | > 1000 nM | 2.89 µM | 207 nM | > 10 µM | > 10 µM | > 10 µM | > 10 µM
Hey (Ovarian Carcinoma) | > 10 µM | 1200 nM | 59.8 nM | > 10 µM | > 300 nM | > 1000 nM | 450 nM | > 1 nM | > 1000 nM | 32 nM | > 3000 nM | > 1000 nM | 1240 nM | > 10 µM | 128 nM | 398 nM | 476 nM | > 10 µM | > 3000 nM | > 10 µM | > 1000 nM | 6.18 µM | > 1000 nM | > 10 µM | 7.99 µM | 3.04 µM | > 10 µM

Reference: the supplement of paper PMC11061612
